Source: ChEMBL document CHEMBL1201862, “PubChem BioAssay data set” (2004)
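All cell lines were grown in 96-well plates and treated with compound for 48 hours. GI50: concentration for 50% inhibition of growth.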 Activity calls are given as the source filed them. No stated cut-off is given here; in the data, active = GI50 up to about 1.1 µM and inactive = higher.

Assays:
Assay in all cases: DTP human tumour cell line panel, 48 h
HOP-62 = tested on: HOP-62
TK-10 = tested on: TK-10
CAKI-1 = tested on: CAKI-1
HL-60 = tested on: HL-60
SK-MEL-28 = tested on: SK-MEL-28
HCT-15 = tested on: HCT-15
MOLT-4 = tested on: MOLT-4
IGROV-1 = tested on: IGROV-1
EKVX = tested on: EKVX
OVCAR-3 = tested on: OVCAR-3
SF-268 = tested on: SF-268
RXF 393 = tested on: RXF 393
SNB-19 = tested on: SNB-19
SK-OV-3 = tested on: SK-OV-3
SNB-75 = tested on: SNB-75
A498 = tested on: A498
UO-31 = tested on: UO-31
RPMI-8226 = tested on: RPMI-8226
OVCAR-4 = tested on: OVCAR-4
OVCAR-8 = tested on: OVCAR-8

SMILES	GI50 (HOP-62)	GI50 (TK-10)	GI50 (CAKI-1)	GI50 (HL-60)	GI50 (SK-MEL-28)	GI50 (HCT-15) [µM]	GI50 (MOLT-4)	GI50 (IGROV-1)	GI50 (EKVX)	GI50 (OVCAR-3)	GI50 (SF-268)	GI50 (RXF 393)	GI50 (SNB-19)	GI50 (SK-OV-3)	GI50 (SNB-75)	GI50 (A498)	GI50 (UO-31)	GI50 (RPMI-8226)	GI50 (OVCAR-4)	GI50 (OVCAR-8)
Cc1ccc(S(=O)(=O)NNC2Oc3cc4c(cc3C(c3ccccc3O)C2C)OCO4)cc1 (stereo not drawn)	15.1 µM (inactive)	15.5 µM (inactive)	11.5 µM (inactive)	18.4 µM (inactive)	15.6 µM (inactive)	4.9	10.4 µM (inactive)	12.4 µM (inactive)	10.7 µM (inactive)	11.4 µM (inactive)	14 µM (inactive)	4.22 µM (inactive)	12.7 µM (inactive)	21.7 µM (inactive)	10.9 µM (inactive)	16.8 µM (inactive)	11 µM (inactive)	12.2 µM (inactive)	–	–
NC(CCOCCP(=O)(O)CCC1C=CC=CC1)C(=O)O (stereo not drawn)	–	> 100 µM (inactive)	> 100 µM (inactive)	> 100 µM (inactive)	> 100 µM (inactive)	> 100	> 100 µM (inactive)	> 100 µM (inactive)	> 100 µM (inactive)	> 100 µM (inactive)	> 100 µM (inactive)	> 100 µM (inactive)	> 100 µM (inactive)	> 100 µM (inactive)	64 µM (inactive)	–	> 100 µM (inactive)	> 100 µM (inactive)	> 100 µM (inactive)	> 100 µM (inactive)
Nc1c(C(=O)Nc2ccc(C3=NCCN3)cc2)cccc1C(=O)Nc1ccc(C2=NCCN2)cc1	–	–	> 100 µM (inactive)	> 100 µM (inactive)	> 100 µM (inactive)	> 100	> 100 µM (inactive)	> 100 µM (inactive)	–	> 100 µM (inactive)	> 100 µM (inactive)	> 100 µM (inactive)	> 100 µM (inactive)	> 100 µM (inactive)	> 64.9 µM (inactive)	> 100 µM (inactive)	> 100 µM (inactive)	> 100 µM (inactive)	> 100 µM (inactive)	65.3 µM (inactive)
Nc1nc(N)c2c(CCc3ccc(C(=O)N[C@@H](CCC(=O)O)C(=O)O)cc3)ccnc2n1	–	0.0363 µM (active)	< 0.0116 µM (active)	< 0.01 µM (active)	> 88.9 µM (inactive)	< 0.0232	< 0.05 µM (active)	0.029 µM (active)	> 100 µM (inactive)	0.0365 µM (active)	0.0308 µM (active)	0.0465 µM (active)	0.912 µM (active)	0.0628 µM (active)	0.323 µM (active)	0.541 µM (active)	0.0164 µM (active)	< 0.0145 µM (active)	–	< 0.01 µM (active)
CC(=O)O[C@H]1[C@@H](OC(C)=O)C(C)(C)/C=C/[C@H](C)C(=O)[C@@]2(OC(C)=O)C[C@@](C)(OC(C)=O)[C@H](OC(C)=O)[C@@H]2[C@H]2OC(=O)CC[C@@]2(OC(=O)c2ccccc2)[C@@H]1OCC(C)C	6.04 µM (inactive)	3.61 µM (inactive)	8.73 µM (inactive)	4.11 µM (inactive)	–	> 100	4.76 µM (inactive)	68.5 µM (inactive)	87.9 µM (inactive)	> 100 µM (inactive)	> 100 µM (inactive)	46.7 µM (inactive)	> 100 µM (inactive)	> 100 µM (inactive)	17.8 µM (inactive)	–	22.2 µM (inactive)	–	62.7 µM (inactive)	> 100 µM (inactive)
COc1cc2c(cc1Oc1c(Oc3c(O)c(OC)cc4c3C(CC(C)C)N(C)CC4)c(OC)cc3c1C(CC(C)C)N(C)CC3)C(CC(C)C)N(C)CC2 (stereo not drawn)	0.533 µM (active)	–	0.575 µM (active)	3.03 µM (inactive)	0.897 µM (active)	1.81	1.03 µM (active)	3.02 µM (inactive)	0.528 µM (active)	1.12 µM (inactive)	1.51 µM (inactive)	0.495 µM (active)	0.582 µM (active)	1.12 µM (active)	0.611 µM (active)	0.152 µM (active)	3.95 µM (inactive)	2.34 µM (inactive)	1.12 µM (inactive)	0.618 µM (active)
Cn1c(=O)ccc2c(=O)c3ccccc3oc21	> 100 µM (inactive)	> 100 µM (inactive)	> 100 µM (inactive)	> 100 µM (inactive)	> 100 µM (inactive)	> 100	–	> 100 µM (inactive)	> 100 µM (inactive)	> 100 µM (inactive)	> 100 µM (inactive)	64.9 µM (inactive)	> 100 µM (inactive)	> 100 µM (inactive)	0.029 µM (active)	> 100 µM (inactive)	4.68 µM (inactive)	–	> 100 µM (inactive)	> 100 µM (inactive)
C=C1CC(OC)(C(O)C(=O)N[C@H]2OCO[C@H]3C2O[C@H](C[C@@H](CO)OC)C(C)(C)C3OC)O[C@H](C)[C@@H]1C (stereo partly drawn)	< 0.00931 µM (active)	–	< 0.00931 µM (active)	< 0.00931 µM (active)	< 0.00931 µM (active)	< 0.00931	0.931 µM (active)	< 0.00931 µM (active)	–	< 0.00931 µM (active)	< 0.00931 µM (active)	< 0.00931 µM (active)	< 0.00931 µM (active)	< 0.00931 µM (active)	< 0.00931 µM (active)	< 0.00931 µM (active)	< 0.00931 µM (active)	< 0.00931 µM (active)	< 0.00931 µM (active)	< 0.00931 µM (active)
O=C(NN1C(=O)C(Cl)C1c1cccc([N+](=O)[O-])c1)c1ccccc1O (stereo not drawn)	> 100 µM (inactive)	> 100 µM (inactive)	–	> 100 µM (inactive)	> 100 µM (inactive)	–	> 100 µM (inactive)	76.4 µM (inactive)	> 100 µM (inactive)	> 100 µM (inactive)	> 100 µM (inactive)	> 100 µM (inactive)	68.5 µM (inactive)	> 100 µM (inactive)	> 100 µM (inactive)	–	71.9 µM (inactive)	> 100 µM (inactive)	> 100 µM (inactive)	> 100 µM (inactive)
O=C(/C=C/CC(O)(c1ccccc1)c1ccccc1)Nc1ccccc1Cl	> 100 µM (inactive)	> 100 µM (inactive)	> 100 µM (inactive)	> 100 µM (inactive)	> 100 µM (inactive)	> 100	> 100 µM (inactive)	–	> 100 µM (inactive)	> 100 µM (inactive)	> 100 µM (inactive)	–	> 100 µM (inactive)	> 100 µM (inactive)	28.1 µM (inactive)	> 100 µM (inactive)	> 100 µM (inactive)	> 100 µM (inactive)	> 100 µM (inactive)	> 100 µM (inactive)
COc1ccccc1N1C(Cl)C(=O)C1c1c[nH]c2ccccc12 (stereo not drawn)	> 100 µM (inactive)	> 100 µM (inactive)	–	> 100 µM (inactive)	> 100 µM (inactive)	–	> 100 µM (inactive)	> 100 µM (inactive)	> 100 µM (inactive)	> 100 µM (inactive)	> 100 µM (inactive)	> 100 µM (inactive)	26.7 µM (inactive)	> 100 µM (inactive)	> 100 µM (inactive)	–	> 100 µM (inactive)	> 100 µM (inactive)	> 100 µM (inactive)	> 100 µM (inactive)
CN(c1ccccc1)c1c(-c2ccccc2)c(=O)oc2c1ccc1occc12	> 100 µM (inactive)	–	36.2 µM (inactive)	39.7 µM (inactive)	> 100 µM (inactive)	> 88.5	22.2 µM (inactive)	> 100 µM (inactive)	> 100 µM (inactive)	> 100 µM (inactive)	> 100 µM (inactive)	> 92.3 µM (inactive)	> 100 µM (inactive)	> 100 µM (inactive)	> 100 µM (inactive)	> 100 µM (inactive)	> 100 µM (inactive)	–	> 81.8 µM (inactive)	> 100 µM (inactive)
CC1C(NNC(N)=O)Oc2cc3c(cc2C1c1ccccc1O)OCO3 (stereo not drawn)	31.3 µM (inactive)	46 µM (inactive)	29.5 µM (inactive)	14.9 µM (inactive)	31 µM (inactive)	33.6	30 µM (inactive)	26.3 µM (inactive)	66.8 µM (inactive)	33.1 µM (inactive)	39.6 µM (inactive)	23.8 µM (inactive)	91 µM (inactive)	41.4 µM (inactive)	27.9 µM (inactive)	25.9 µM (inactive)	52.5 µM (inactive)	21.5 µM (inactive)	–	–
CCCCCCCCCCCCCCCCOCC(COP(=O)([O-])OCC[N+](C)(C)C)OCCCCCCCCCCCCCCCC (stereo not drawn)	> 100 µM (inactive)	–	> 100 µM (inactive)	> 100 µM (inactive)	> 100 µM (inactive)	> 100	> 100 µM (inactive)	> 100 µM (inactive)	> 100 µM (inactive)	> 100 µM (inactive)	> 100 µM (inactive)	> 100 µM (inactive)	> 100 µM (inactive)	> 100 µM (inactive)	> 100 µM (inactive)	> 100 µM (inactive)	> 100 µM (inactive)	> 100 µM (inactive)	> 100 µM (inactive)	> 100 µM (inactive)
Cn1c(=O)nc2n(-c3ccc(Cl)cc3Cl)c3ccccc3nc-2c1=O	11.7 µM (inactive)	26.2 µM (inactive)	3.08 µM (inactive)	3.18 µM (inactive)	11.4 µM (inactive)	3.05	10.7 µM (inactive)	12.8 µM (inactive)	5.27 µM (inactive)	2.1 µM (inactive)	25.9 µM (inactive)	3.96 µM (inactive)	13.7 µM (inactive)	30.8 µM (inactive)	–	–	12 µM (inactive)	15.4 µM (inactive)	3.51 µM (inactive)	2.74 µM (inactive)
